The nature of data set [1]: Membrane permeability coefficient on the CaCO2 cell model. The class given is in vitro ADME. Particulars: human, Caco-2. How it is done: (§1) These compounds are molecules that are very sparingly soluble in water, respectively: 0.1 μg/ml and 1 μg/l at pH=6.5. Furthermore, these compounds have high membrane permeability coefficients: respectively, 78×10^−7 cm/s and 96×10^−7 cm/s on the CaCO2 cell model, as described by M. C. Gres et al. in Pharmaceutical Research, […], 15(5), 726-7333.
Background: Caco-2 monolayers are a common model of the intestinal barrier.

A short description of a further data set: Solubility in water. The class given is physicochemical. Particulars: pH=6.5. How it is done: as §1

Values after ≈ are worked out from the molar mass of the structure shown.

Take `CCc1c(C(=O)NN2CCCCC2)nn(-c2ccc(Cl)cc2Cl)c1-c1ccc(Br)cc1` [Compound A, N-Piperidino-5-(4-bromophenyl)-1-(2,4-dichlorophenyl)-4-ethylpyrazole-3-carboxamide]: the Papp (in general, a coefficient for how fast a substance crosses the barrier) in data set [1] is 7.8 ×10⁻⁶ cm/s. Besides, the solubility (commonly the concentration that dissolves in the medium under given conditions) in the data set “Solubility in water” was 0.1 µg/mL (≈ 0.191 µM). Take `Cc1c(C(=O)NN2CCCCC2)nn(-c2ccc(Cl)cc2Cl)c1-c1ccc(Cl)cc1` [Compound B, N-Piperidino-5-(4-chlorophenyl)-1-(2,4-dichlorophenyl)-4-methylpyrazole-3-carboxamide, reference compound]: the Papp in data set [1] stood at 9.6 ×10⁻⁶ cm/s.
